# From ChEMBL document CHEMBL2412967, “A FRET-based assay for the discovery of West Nile Virus NS2B-NS3 protease inhibitors” (Bioorg Med Chem Lett, 2013)
# Peptide text beside a SMILES is read from it.
# Legend:
# West Nile virus [1] = experiment: Activity at West Nile Virus NS2B-NS3 protease expressed in Escherichia coli BL21 (DE3) after 1 hr by colorimetric assay
# West Nile virus [2] = experiment: Activity at West Nile Virus NS2B-NS3 protease expressed in Escherichia coli BL21 (DE3) after 1 hr by FRET assay
# West Nile virus [3] = experiment: Ratio of kcat to Km for West Nile Virus NS2B-NS3 protease expressed in Escherichia coli BL21 (DE3) after 1 hr by FRET assay
# West Nile virus [4] = experiment: Ratio of kcat to Km for West Nile Virus NS2B-NS3 protease expressed in Escherichia coli BL21 (DE3) after 1 hr by colorimetric assay
compound,measurement,setting,value
COc1ccc2c(CC(=O)N[C@@H](CCCCN)C(=O)N[C@@H](CCCCN)C(=O)N[C@@H](CCCNC(=N)N)C(=O)NCC(=O)NCC(Nc3ccc([N+](=O)[O-])cc3[N+](=O)[O-])C(=O)N[C@@H](C)C(=O)N[C@@H](CCCCN)C(N)=O)cc(=O)oc2c1 (stereo partly specified) (HELM PEPTIDE1{[COc1ccc2c(CC(=O)[*:2])cc(=O)oc2c1].K.K.R.G.[C[C@H](NC(=O)C(CN[*:1])Nc1ccc([N+](=O)[O-])cc1[N+](=O)[O-])C(=O)N[C@@H](CCCCN)C(N)=O]}$$$$V2.0),Km,West Nile virus [1],69.9 µM
same,kcat,West Nile virus [1],0.263 s⁻¹
same,Km,West Nile virus [2],3.35 µM
same,kcat,West Nile virus [2],0.0717 s⁻¹
same,kcat/Km,West Nile virus [3],21400 M⁻¹ s⁻¹
same,kcat/Km,West Nile virus [4],3760 M⁻¹ s⁻¹
